Source: the supplement of paper PMC10307832

Columns and labels:
Test in all cases: relative viability (nuclei count vs DMSO), 5 days (fraction); higher = more cells survive
R406 + Bortezomib = compound: COc1cc(Nc2ncc(F)c(Nc3ccc4c(n3)NC(=O)C(C)(C)O4)n2)cc(OC)c1OC [R406] + CC(C)C[C@H](NC(=O)[C@H](Cc1ccccc1)NC(=O)c1cnccn1)B(O)O [Bortezomib] (partner 0.002 µM)
Method in brief: (§1)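 One day after seeding in 1536-well plates, lung cancer cell lines were dosed by pin tool. Dosing was either single-drug or a fixed anchor-drug dose plus five library-drug doses (not always all listed) in √10 steps. After 5 days, nuclei were stained in one fix-and-stain step and counted on 4× images, and relative viability is the nuclei count of treated wells over that of vehicle wells, given as the median of duplicate plates.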

R406 + Linsitinib = compound: COc1cc(Nc2ncc(F)c(Nc3ccc4c(n3)NC(=O)C(C)(C)O4)n2)cc(OC)c1OC [R406] + C[C@]1(O)C[C@@H](c2nc(-c3ccc4ccc(-c5ccccc5)nc4c3)c3c(N)nccn32)C1 [Linsitinib] (partner 1 µM)
Method in brief: as §1

Daporinad + Palbociclib = compound: O=C(/C=C/c1cccnc1)NCCCCC1CCN(C(=O)c2ccccc2)CC1 [Daporinad] + CC(=O)c1c(C)c2cnc(Nc3ccc(N4CCNCC4)cn3)nc2n(C2CCCC2)c1=O [Palbociclib] (partner 0.5 µM)
Method in brief: as §1

Daporinad + Dasatinib = compound: O=C(/C=C/c1cccnc1)NCCCCC1CCN(C(=O)c2ccccc2)CC1 [Daporinad] + Cc1nc(Nc2ncc(C(=O)Nc3c(C)cccc3Cl)s2)cc(N2CCN(CCO)CC2)n1 [Dasatinib] (partner 0.075 µM)
Method in brief: as §1

Row | Cell Line | relative viability (R406 + Bortezomib; first compound 0.08 µM) | relative viability (R406 + Bortezomib; first compound 0.253 µM) | relative viability (R406 + Bortezomib; first compound 0.8 µM) | relative viability (R406 + Bortezomib; first compound 2.53 µM) | relative viability (R406 + Bortezomib; first compound 8 µM) | relative viability (R406 + Linsitinib; first compound 0.08 µM) | relative viability (R406 + Linsitinib; first compound 0.253 µM) | relative viability (R406 + Linsitinib; first compound 0.8 µM) | relative viability (R406 + Linsitinib; first compound 2.53 µM) | relative viability (R406 + Linsitinib; first compound 8 µM) | relative viability (Daporinad + Palbociclib; first compound 0.0005 µM) | relative viability (Daporinad + Palbociclib; first compound 0.001581 µM) | relative viability (Daporinad + Palbociclib; first compound 0.005 µM) | relative viability (Daporinad + Palbociclib; first compound 0.01581 µM) | relative viability (Daporinad + Dasatinib; first compound 0.0005 µM) | relative viability (Daporinad + Dasatinib; first compound 0.001581 µM) | relative viability (Daporinad + Dasatinib; first compound 0.005 µM) | relative viability (Daporinad + Dasatinib; first compound 0.01581 µM)
1 | 201T | 1.11 | 1.09 | 1.11 | 1.04 | 0.993 | 0.995 | 1.06 | 1.07 | 0.915 | 0.824 | 0.379 | 0.347 | 0.329 | 0.375 | 0.52 | 0.555 | 0.595 | 0.6
2 | A549 |  |  |  |  |  | 0.52 | 0.659 | 0.619 | 0.584 | 0.418 |  |  |  |  |  |  |  | 
3 | A-427 | 0.948 | 1.01 | 1.03 | 0.526 | 0.74 | 1.09 | 1.19 | 1.17 | 1.07 | 0.964 | 0.475 | 0.533 | 0.487 | 0.473 | 0.613 | 0.841 | 0.618 | 0.338
4 | ABC-1 | 0.399 | 0.321 | 0.317 | 0.251 | 0.265 | 0.863 | 1.03 | 0.803 | 0.594 | 0.555 | 0.87 | 0.558 | 0.793 | 0.904 | 0.481 | 0.595 | 0.511 | 0.42
5 | BEN | 0.685 | 1.03 | 1.02 | 0.88 | 0.553 | 0.946 | 1.22 | 0.981 | 0.877 | 0.708 | 0.528 | 0.459 | 0.433 | 0.599 | 0.316 | 0.251 | 0.318 | 0.414
6 | CAL-12T | 0.927 | 1.18 | 1.11 | 0.423 | 0.218 | 0.806 | 0.909 | 0.943 | 0.495 | 0.675 | 0.332 | 0.445 | 0.342 | 0.143 | 0.342 | 0.409 | 0.37 | 0.134
7 | COR-L23 | 0.942 | 1.14 | 1.06 | 0.907 | 0.523 | 0.886 | 1.04 | 1.04 | 0.731 | 0.405 | 0.302 | 0.362 | 0.278 | 0.191 | 0.541 | 0.575 | 0.38 | 0.183
8 | COR-L 105 | 0.68 | 0.84 | 1.06 | 0.315 | 0.246 | 0.968 | 1.13 | 0.879 | 0.705 | 0.736 | 0.395 | 0.401 | 0.37 | 0.44 | 0.317 | 0.376 | 0.346 | 0.416
9 | Calu-6 | 0.997 | 1.06 | 1.04 | 0.631 | 0.557 | 0.937 | 1.08 | 1.12 |  | 0.49 |  |  |  |  |  |  |  | 
10 | ChaGo-K-1 | 1.02 | 1.06 | 1.11 | 0.823 | 0.347 |  |  |  |  |  | 0.914 | 0.908 | 0.786 | 0.327 | 0.672 | 0.5 | 0.476 | 0.278
11 | EBC-1 | 0.606 | 0.616 | 0.672 | 0.44 | 0.231 | 1.01 | 1.07 | 1.13 | 0.732 | 0.423 |  |  |  |  |  |  |  | 
12 | EKVX | 1.01 | 1.17 | 1.45 | 0.994 | 0.6 | 1.05 | 1.32 | 1.19 | 0.9 | 0.688 | 0.435 | 0.379 | 0.423 | 0.465 | 0.47 | 0.535 | 0.619 | 0.838
13 | EMC-BAC-2 | 1.04 | 1.13 | 1.12 | 1.04 | 0.844 | 0.817 | 0.87 | 0.822 | 0.707 | 0.53 | 0.513 | 0.546 | 0.41 | 0.327 | 0.359 | 0.362 | 0.387 | 0.319
14 | EPLC-272H | 0.813 | 0.983 | 0.984 | 0.51 | 0.495 | 1.1 | 1.18 | 1.15 | 0.717 | 0.564 | 0.338 | 0.307 | 0.697 | 0.351 | 0.393 | 0.482 | 0.458 | 0.473
15 | H3255 | 0.852 | 0.912 | 0.686 | 0.865 | 0.457 | 0.84 | 1.08 | 1.04 | 0.8 | 0.725 | 0.308 | 0.322 | 0.344 | 0.33 | 0.391 | 0.387 | 0.491 | 0.443
16 | HARA | 1.07 | 1.21 | 1.15 | 0.991 | 0.389 | 0.772 | 0.991 | 1.04 | 0.819 | 0.288 | 0.258 | 0.263 | 0.308 | 0.238 | 0.3 | 0.285 | 0.284 | 0.339
